# Measured values from ChEMBL document CHEMBL3507680, “University of Dundee, Gates Library screen for HepG2 cell viability”.
# Assay: Human HepG2 cell viability assay in 384 well format
# Assay type: toxicity, cell-based
# Set-up: dose 125 nL, time 70.5 hour; cytotoxicity at 70.5 h: concentration not given beside the values
# Conditions: HepG2 cells, read-out: Inhibition
row,Compound,cytotoxicity at 70.5 h
1,CN(C)c1cc(CNC(=O)c2cccc(F)c2)ccn1,12.7%
2,O=C(NCCN1CCCCCC1=O)c1ccc(=O)[nH]n1,2.56%
3,COc1ccccc1C(O)CNC(=O)NCc1cc[nH]n1 (stereo not drawn),-4.26%
4,CN(C)c1cc(CNC(=O)c2ccc(F)cc2)ccn1,2.85%
5,CC(Cn1ccnc1)NC(=O)NCc1ccc2c(c1)OCCO2 (stereo not drawn),2.17%
6,O=C1CCc2cc(-c3csc(CCN4CCOC4=O)n3)ccc2N1,2.18%
7,O=C1CCc2cc(-c3csc(CCN4CCOC4=O)n3)c(F)cc2N1,24.3%
8,CC(c1cc(F)ccc1F)N(C)C(=O)NCc1ccnc(N(C)C)c1 (stereo not drawn),2.05%
9,CC(C)c1nc2c(n1C)CCN(CC(=O)Nc1nncs1)C2,6.98%
10,CN(C)c1ccc(C(=O)N2CCN(CC(O)C(C)(C)C)CC2)nn1 (stereo not drawn),0.302%
11,CCC(O)CN1CCN(C(=O)c2ccc(N(C)C)nn2)CC1 (stereo not drawn),-2.61%
12,Cc1cc(CN2CCOC(CNc3cccnn3)C2)no1 (stereo not drawn),2.59%
13,OCC1CCCN1c1cc(NCc2cccnc2)ncn1 (stereo not drawn),-1.41%
14,c1cnnc(NCC2CN(Cc3ccon3)CCO2)c1 (stereo not drawn),26.6%
15,Cn1c(C2CC2)nc2c1CCN(CC(=O)Nc1nccs1)C2,-6.18%
16,Cc1ncc(CN2CCOC(CNc3cccnn3)C2)s1 (stereo not drawn),2.68%
17,Cc1nnc2n1CCN(C(=O)c1ccnc(N(C)C)c1)C2,6.98%
18,CN(Cc1noc(C2CC2)n1)C1CCN(CCS(C)(=O)=O)C1 (stereo not drawn),-3.36%
19,CCn1ccnc1CN1CCCC1c1noc(C2CC2)n1 (stereo not drawn),-2.39%
20,Cc1ncsc1CNC(=O)N(CCCO)C1CCc2ccccc21 (stereo not drawn),-7.98%
21,Cc1nc(C2CCCN2Cc2ccon2)no1 (stereo not drawn),-5.54%
22,Cn1ccnc1CNCC1CCCN1c1cccnn1 (stereo not drawn),-4.3%
23,FC(F)(F)Cn1ccnc1CNCC1CCCN1c1cccnn1 (stereo not drawn),-13.2%
24,Cc1noc(C)c1CN(C)CC(=O)N1CCc2sccc2C1,-1.77%

row,Compound,cytotoxicity at 70.5 h
1,CC(C)c1nc(C2CCCN2Cc2nccn2CC(F)(F)F)no1 (stereo not drawn),-8.8%
2,CCOc1ncccc1C(=O)N1CCC(Nc2ccc(C)nn2)CC1,-2.98%
3,NC(=O)NC(=O)CN1CCN(c2nccs2)CC1,-11.6%
4,NC(=O)NC(=O)CCN1CCN(c2nccs2)CC1,19.6%
5,CNC(=O)NC(=O)CCN1CCN(c2nccs2)CC1,-0.375%
6,COc1cc(C)c(C(C)NC(=O)NCCCn2cncn2)cc1OC (stereo not drawn),-5.14%
7,Cc1nc(CN2CCOC(Cn3cccn3)C2)no1 (stereo not drawn),-3.79%
8,CC(C)c1nnc2n1CCN(C(=O)c1ccnc(-n3ccnc3)c1)C2,19.7%
9,CC(C)c1nnc2n1CCN(C(=O)c1ccc3c(c1)CCC3)C2,0.826%
10,CS(=O)(=O)c1cccc(C(N)c2ccc(F)cc2)c1 (stereo not drawn),-3.93%
11,CS(=O)(=O)c1cccc(C(N)c2ccc(Cl)cc2)c1 (stereo not drawn),-4.71%
12,COc1ncccc1C(=O)N1CCC(Nc2ccc(C)nn2)CC1,-4.22%
13,Cc1nc(CN(C)C2CCN(CCc3cnn(C)c3)C2)no1 (stereo not drawn),18.2%
14,Cc1cnc(CN2CCCC(c3cc(C)[nH]n3)C2)cn1 (stereo not drawn),15.7%
15,CC(=O)N(Cc1ncc(C)o1)C1CCN(CCc2cnn(C)c2)C1 (stereo not drawn),-11.2%
16,CC(C)(O)CN1CCN(C(=O)c2cc(Cl)cc3cccnc23)CC1,-11.7%
17,Cn1cnc2c1CCN(Cc1ccc(C(=O)N3CCCC3)cc1)C2,-3.6%
18,Cc1cc(C)n(CC2CCCN2CCCS(N)(=O)=O)n1 (stereo not drawn),-8.83%
19,Cn1cc(CN2CCCN(C(=O)c3cn4ccccc4n3)CC2)cn1,-0.261%
20,CS(=O)(=O)NCC1CCCN(C(=O)COCc2ccccc2)C1 (stereo not drawn),-12.3%
21,O=C(NCc1cc[nH]n1)NCC(c1ccc(F)cc1)N1CCOCC1 (stereo not drawn),-12.9%
22,CN1CCN(c2cc(CNC(=O)c3ccc(=O)[nH]n3)ccn2)CC1,-21.2%
23,Cc1cc(C(=O)NCc2ccnc(N3CCN(C)CC3)c2)c(C)s1,-18%
24,CC(O)CN1CCC(CNCc2ccccc2Br)CC1 (stereo not drawn),-1.26%
